# Reference: PMC7994712 (Nature Communications, 2021)
# Like-named read-outs stand apart in the source and are kept apart here. Where a SMILES comes first, the peptide text is derived from it. Bridges are numbered along the chain shown (N, C = ends).
# Experiments:
# [1] = molecular target: T1, SSTR1 (Homo sapiens, UniProt P30872); assay: Radio-ligand binding assay, SSTR1
# T1 construct: host or cells: CHO-K1
# Experimental: (§1) Graphical and tabular representation of the percentage inhibition of specific binding, as IC50 (nM) binding values for the analogues against the five SSTR1-SSTR5 is represented in Supplementary Fig. 1b and Supplementary Table 1. […] IC50 values were determined by a non-linear, least squares regression analysis using Prism 9 (GraphPad Software, USA), using the Dose-response inhibition (three-parameters) model. […]
# (§2) (SSTR1-SSTR5), using a Radio-ligand Binding Assay (Supplementary Figure 1b). Cells were incubated in HEPES buffer pH 7.4 with the new analogues of Cortistatin at 10 different concentrations in a range […]
# (§3) specifically bound (performed at Eurofins Panlabs, Inc.). The radioactivity obtained in the absence of SST14 is considered as total binding and that obtained in the presence of 1 µM of SST14 is considered as nonspecific binding. Specific binding was considered as the difference between total and nonspecific.
# (§4) Biochemical assay results are presented as the percent inhibition of specific bindin g (% inhib ition) as a […]
# (§5) part of each binding assay with the five (SSTR1 -SS T R5 ) . I C50 values were determined by a non-linear, least squares regression analysis using Prism 9 (GraphPad Software, USA), using the Dose -response inhibit ion (t hree-parameters) model.
# [2] = in vitro; format: cell-based; conditions: mouse, peritoneal macrophages stimulated with LPS, Viability of Macrophages (%, vs. Initiation of culture)
# Experimental: Mouse peritoneal macrophages were cultured in medium (unstimulated) or stimulated with LPS (1 μg/ml) in the absence or presence of Analogue 5 (100 nM). Mouse spleen cells were cultured in medium alone (unstimulated) or stimulated with anti -CD3 a ntib odies (2 μg/ml) in the absence or presence of analogue 5 (100 nM). After 24 hours (macrophages) or 48 hours (spleen cells) of culture, cell viability and apoptosis were determined. The percentage of cell viability relative to the initiation of cell c ult ure was determined using AlamarBlue assay (Thermo Fisher Scientific). The percentage of apoptotic cells was determined by flow cytometric analysis of Annexin Vpositive 7-amino-actinomycin Dnegative cell population (R&D Systems). Data are the mean ± SEM of 5 independe nt cultures performed in duplicates. […]
# Treatments were administered in a curative regime as described in Figure 4 and sera were collected 10 days after TNBS infusion. n=8 mice/group. […] Statistical differences between groups were calculated usi ng unpa ired two -tailed Student’s t-test. ****p<0.0001 versus TNBS+saline […]
# Total RNA was isolated from colon sections obtained at day 10 after TNBS injection following the manufacturer’s protocol (Tripure, Roche). […] SYBER green quantitative PCR (SensiFast Sybr No-Rox mix, Bioline) was performed as described in the […]
# [3] = molecular target: T2, SSTR2 (Homo sapiens, UniProt P30874); assay: Radio-ligand binding assay, SSTR2
# T2 construct: host or cells: CHO-K1
# T2 sequence (P30874 whole entry): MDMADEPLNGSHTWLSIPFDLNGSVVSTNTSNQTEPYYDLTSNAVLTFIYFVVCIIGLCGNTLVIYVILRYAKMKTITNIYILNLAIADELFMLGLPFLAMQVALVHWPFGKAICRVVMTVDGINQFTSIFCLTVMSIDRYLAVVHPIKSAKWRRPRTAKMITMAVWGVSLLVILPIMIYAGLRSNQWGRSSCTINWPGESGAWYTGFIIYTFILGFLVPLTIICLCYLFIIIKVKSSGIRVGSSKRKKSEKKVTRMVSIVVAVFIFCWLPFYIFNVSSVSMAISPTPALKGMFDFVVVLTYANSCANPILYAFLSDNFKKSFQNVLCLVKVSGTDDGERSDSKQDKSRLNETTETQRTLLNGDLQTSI
# Experimental: as §1, §2, §3, §4, §5
# [4] = In vitro stability of peptides in human plasma (half-life in serum); conditions: serum half-life of analogue 5 vs native CST
# Experimental: The peptides were dissolved in water at a concentration of 6 mg/mL and warmed up to 37 °C. Human plasma was obtained as a lyophilised solid (K3 EDTA Plasma, BBI solutions, code S112-1), reconstituted with sterile 0.9% sodium chloride solution and stored at −20 °C. Human plasma was thawed and incubated at 37 °C before use.
# The peptides were incubated in 90% human plasma at 37 °C for different times and then precipitated with two volume equivalents of methanol. […] The supernatant was filtered with a 0.45-µm PVDF filter and analysed in triplicate by RP-HPLC using an isocratic method (eluent A = 0.1%TFA in water; eluent B = 0.07%TFA in ACN, column = Kromasil C8, 100 Å, 5 µm, 250 × 4.6 mm, flow = 1 mL/min, wavelength = 220 nm, injection volume = 20 µL, Tª = 60 °C). The disappearance of the peptide was determined in relation to the area of the initial time for calculating its half-life.
# [5] = molecular target: T3, SSTR3 (Homo sapiens, UniProt P32745); assay: Radio-ligand binding assay, SSTR3
# T3 construct: host or cells: CHO-K1
# T3 sequence (P32745 whole entry): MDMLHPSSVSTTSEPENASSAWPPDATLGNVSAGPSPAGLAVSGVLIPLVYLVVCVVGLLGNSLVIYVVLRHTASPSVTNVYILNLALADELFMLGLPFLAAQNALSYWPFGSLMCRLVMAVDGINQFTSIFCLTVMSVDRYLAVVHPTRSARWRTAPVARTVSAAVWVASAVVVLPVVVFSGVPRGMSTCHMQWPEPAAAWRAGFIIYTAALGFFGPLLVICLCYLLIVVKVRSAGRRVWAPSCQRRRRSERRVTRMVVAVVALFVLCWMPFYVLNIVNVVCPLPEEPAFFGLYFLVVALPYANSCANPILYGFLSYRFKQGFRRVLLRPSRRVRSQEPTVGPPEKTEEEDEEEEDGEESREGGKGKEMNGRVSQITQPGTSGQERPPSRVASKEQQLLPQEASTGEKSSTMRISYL
# Experimental: as §1, §2, §3, §4, §5
# [6] = molecular target: T4, SSTR5 (Homo sapiens, UniProt P35346); assay: Radio-ligand binding assay, SSTR5
# T4 construct: host or cells: CHO-K1
# T4 sequence (P35346 whole entry): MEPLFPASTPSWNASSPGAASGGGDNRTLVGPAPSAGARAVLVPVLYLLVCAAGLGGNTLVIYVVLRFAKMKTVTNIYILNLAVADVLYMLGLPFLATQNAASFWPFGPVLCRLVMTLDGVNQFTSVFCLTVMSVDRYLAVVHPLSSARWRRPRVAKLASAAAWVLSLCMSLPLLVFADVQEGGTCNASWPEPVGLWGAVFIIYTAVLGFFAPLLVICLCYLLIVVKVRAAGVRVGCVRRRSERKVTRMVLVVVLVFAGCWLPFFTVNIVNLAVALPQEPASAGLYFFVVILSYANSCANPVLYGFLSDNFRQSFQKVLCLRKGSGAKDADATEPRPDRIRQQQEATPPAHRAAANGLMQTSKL
# Experimental: as §1, §2, §3, §4, §5
# [7] = system: LPS-activated mouse Raw 264 macrophages; assay: Inflammatory response of LPS-activated RAW 264 macrophages; format: cell-based; conditions: 100 nM (Supplementary Fig. 2c)
# Experimental: Inflammatory response was assayed in vitro on the mouse macrophagic cell line RAW 264 macrophages and mouse primary peritoneal macrophages. RAW 264 cells (ATTC, TIB-71) were grown at 5 × 10^5 cells/mL in complete DMEM medium (DMEM supplemented with 100 U/mL penicillin/streptomycin, 2 mM L-glutamine, 50 μM 2-mercaptoethanol and 10% heat-inactivated fetal calf serum) until reaching a confluence of 80% and then incubated in the absence (used as baseline reference) or presence of LPS (1 μg/mL, from E. coli serotype 055: B5, Sigma). Cortistatin (mouse/rat CST-14, Bachem) and its synthesised analogues were added at a concentration of 100 nM at the beginning of culture. After 24 h of culture, supernatants were harvested. Levels of the inflammatory cytokines TNFα and IL6 were determined by a specific sandwich ELISA by using capture/biotinylated detection monoclonal antibodies from BD Pharmingen (for TNFα: capture antibody clone G281-2626, cat # 551225; biotin antibody clone MP6-XT3, cat # 554415; for IL6: capture antibody clone MP5-20F3, cat # 554398; biotin MP5-32C1, cat # 554402) according to the manufacturer’s recommendations. Nitric oxide content in culture supernatants was determined by quantifying nitrite levels using the Griess assay.
# [8] = system: anti-CD3-activated mouse spleen cells; assay: Proliferation and Th1-type cytokines of anti-CD3-activated spleen cells; format: cell-based; conditions: 100 nM (Supplementary Fig. 2d)
# Experimental: Spleen cells were isolated from C57Bl/6J mice (male, 8-weeks-old, Charles River) by mechanical cell dissociation, filtration using a nylon filter and red cell lysing. The spleen cells were incubated in complete DMEM medium at a density of 10^6 cells/mL for 2 h. Nonadherent cells (consisting in 80% of T cells) were cultured in complete DMEM medium and stimulated with anti-mouse CD3e antibody (2 μg/mL, clone 145-2C11, BD Pharmingen, cat #: 553058) in the presence of different Cortistatin analogues (100 nM). After 48 h, culture supernatants were collected and the levels of cytokines (IFNγ and IL2) were determined by a specific sandwich ELISA by using capture/biotinylated detection monoclonal antibodies from BD Pharmingen (for IFNγ: capture antibody clone XMG1.2, cat # 554408; biotin antibody clone R4-6A2, cat # 551506; for IL2: capture antibody clone S4B6, cat # 554375; biotin antibody clone JES6-5H4, cat # 554426) according to the manufacturer’s recommendations. To determine the effect of different analogues of Cortistatin in proliferation, the cells were cultured for 72 h, 0.5 μCi (0.0185 MBq)/well of [^3H]-thymidine was added for the last 8 h of culture, harvested the membranes and [^3H]-thymidine incorporated was quantified by scintillation counting.
# [9] = system: serum of mice with TNBS-induced acute colitis; assay: Serum cytokines in TNBS-induced acute colitis; format: in vivo, mouse
# Source text: In both TNBS-induced acute and chronic colitis, animals were daily monitored for the appearance of diarrhea, body weight loss and survival. At different time points, colitis signs were scored in base of stool consistency and rectal bleeding by two blinded observers using the following scale: 0 = normal stool appearance, 1 = slight decrease in stool consistency, 2 = moderate decrease in stool consistency, 3 = moderate decrease in stool consistency and presence of blood in stools, 4 = severe watery diarrhea and moderate/severe bleeding in stools. […] After macroscopic examination, various colonic segments were immediately frozen in liquid nitrogen for protein extraction and cytokine determination or for histopathological analysis as described below. In some animals, MLNs were isolated 10 days after TNBS injection and assayed for proliferation, cytokine production and flow cytometric analysis as described below. Moreover, sera were collected by cardiac puncture at day 10 after TNBS injection and the levels of cytokines and anti-TNBS IgG were determined by specific ELISAs as described below. […]
# Supplementary Table 3. Serum cytokines in TNBS-in du ced acu t e col i ti s.
# Treatments were administered in a curative regime as described in Figure 4 and sera were collected 10
# days after TNBS infusion. n=8 mice/group. Data are mean ± SEM. […]
# [10] = system: colonic mucosa of mice with TNBS-induced acute colitis; assay: Cytokines in colonic mucosa, TNBS-induced acute colitis; format: in vivo, mouse; conditions: Figure 5c, mean of 8 mice
# Experimental: Control mice received 50% ethanol alone.
# Protein extracts were isolated by homogenisation of colonic segments (50 mg tissue/mL) in 50 mM Tris-HCl, pH 7.4, with 0.5 mM DTT, and 10 μg/mL of a cocktail of proteinase inhibitors (all from Sigma-Aldrich). Samples were centrifuged at 30,000×g for 20 min and stored at –80 °C until cytokine determination.
# [11] = molecular target: T5, SSTR4 (Homo sapiens, UniProt P31391); design: method as in earlier work; conditions: literature values marked *; ref 1 (supplementary references); cited from earlier work
# T5 construct: host or cells: CHO-K1
# T5 sequence (P31391 whole entry): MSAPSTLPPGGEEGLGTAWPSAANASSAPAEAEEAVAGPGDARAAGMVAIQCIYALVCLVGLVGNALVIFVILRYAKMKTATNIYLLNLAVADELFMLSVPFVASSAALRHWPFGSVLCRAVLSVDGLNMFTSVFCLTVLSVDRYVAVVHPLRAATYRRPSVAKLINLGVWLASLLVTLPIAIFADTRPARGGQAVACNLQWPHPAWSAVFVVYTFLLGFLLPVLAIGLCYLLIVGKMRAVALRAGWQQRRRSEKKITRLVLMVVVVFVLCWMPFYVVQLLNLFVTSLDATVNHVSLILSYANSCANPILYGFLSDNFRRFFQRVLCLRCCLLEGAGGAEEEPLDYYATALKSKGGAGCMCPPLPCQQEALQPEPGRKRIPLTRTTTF
# Source text: (§6) The peptide backbone is shown in gold and the N- and C-terminus residues, as well as the disulfide bond are labelled. Representative aromatic clusters. All side chains are shown to facilitate structural analysis. Side chains participating in the interactions are specifically labelled. c Schematic representation of Cortistatin-14 sequence. […] 1-2. […] 3-1. […] 3-1. […] 3-1.
# [12] = molecular target: T3, SSTR3; design: method as in earlier work; conditions: literature values marked *; ref 1 (supplementary references); cited from earlier work
# Source text: as §6
# [13] = molecular target: T2, SSTR2; design: method as in earlier work; conditions: literature values marked *; ref 1 (supplementary references); cited from earlier work
# Source text: as §6
# [14] = molecular target: T4, SSTR5; design: method as in earlier work; conditions: literature values marked *; ref 1 (supplementary references); cited from earlier work
# Source text: as §6
# [15] = TNBS acute colitis, curative regime, sera 10 days after TNBS, mean ± SEM, n=8
# [16] = acute colitis induced by TNBS, serum, mean of 8 mice
# T1 sequence (P30872 whole entry): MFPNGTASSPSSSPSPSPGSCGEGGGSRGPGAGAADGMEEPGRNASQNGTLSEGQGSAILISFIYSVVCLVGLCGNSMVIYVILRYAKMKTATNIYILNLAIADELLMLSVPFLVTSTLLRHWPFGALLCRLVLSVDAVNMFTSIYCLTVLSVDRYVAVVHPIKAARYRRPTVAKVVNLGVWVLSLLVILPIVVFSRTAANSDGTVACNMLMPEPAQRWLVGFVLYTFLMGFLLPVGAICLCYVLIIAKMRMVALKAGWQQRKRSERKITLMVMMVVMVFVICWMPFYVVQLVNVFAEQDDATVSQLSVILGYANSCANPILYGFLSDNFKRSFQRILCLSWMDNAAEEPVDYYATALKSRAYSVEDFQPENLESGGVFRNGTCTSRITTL
smiles,measurement,setting,value
CCCCCCCC(=O)N1CCC[C@H]1C(=O)N[C@H]1CSSC[C@@H](C(=O)N[C@@H](CCCCN)C(=O)O)NC(=O)[C@H](CO)NC(=O)[C@H]([C@@H](C)O)NC(=O)[C@H](Cc2ccccc2)NC(=O)[C@H]([C@@H](C)O)NC(=O)[C@H](CCCCN)NC(=O)[C@@H](Cc2c[nH]c3ccccc23)NC(=O)[C@H](Cc2ccccc2)NC(=O)[C@H](Cc2c(C)cc(C)cc2C)NC(=O)[C@H](CC(N)=O)NC(=O)[C@H](CCCCN)NC1=O [A5],IC50,[1],47.3 nM
same,"viability at 24 h, 0.1 µM",[2],93.2%
same,IC50,[3],35 nM
same,increase in stability with respect to the native neuropeptide,[4],10 fold
same,IC50,[5],5.1 nM
same,IC50,[6],1.12 nM
"Cc1cc(C)c(C[C@@H]2NC(=O)[C@H](CC(N)=O)NC(=O)[C@H](CCCCN)NC(=O)[C@@H](NC(=O)[C@@H]3CCCN3)CSSC[C@@H](C(=O)N[C@@H](CCCCN)C(=O)O)NC(=O)[C@H](CO)NC(=O)[C@H]([C@@H](C)O)NC(=O)[C@H](Cc3ccccc3)NC(=O)[C@H]([C@@H](C)O)NC(=O)[C@H](CCCCN)NC(=O)[C@@H](Cc3c[nH]c4ccccc34)NC(=O)[C@H](Cc3ccccc3)NC2=O)c(C)c1 [A4, [L-Msa5_D-Trp7_L-Thr11]-CST 14]",effect on the inflammatory responses in activated macrophages,[7],no significant effects
same,IC50,[1],14.7 nM
same,IC50,[3],9.8 nM
same,IC50,[5],1.8 nM
same,effect on the inflammatory responses in activated lymphocytes,[8],no significant effects
same,IC50,[6],4 nM
"Nc1ccc(O)c(C(=O)O)c1 [Mesalazine, 5-aminosalycilic acid]",Serum IL6,[9]; [15],773 ± 46 pg/mL
same,Serum IL17,[9]; [15],233 ± 15 pg/mL
same,"IL6, serum level",[9]; [16],0.77 ng/mL
same,"TNFa, serum level",[9]; [16],0.78 ng/mL
same,"IL17, serum level","[9]; acute colitis induced by TNBS, serum, mouse 1 of the group",0.024 ng/mL
same,"IL17, serum level","[9]; acute colitis induced by TNBS, serum, mouse 2 of the group",0.024 ng/mL
same,"IL17, serum level","[9]; acute colitis induced by TNBS, serum, mouse 3 of the group",0.029 ng/mL
same,"IL17, serum level","[9]; acute colitis induced by TNBS, serum, mouse 4 of the group",0.017 ng/mL
same,"IL17, serum level","[9]; acute colitis induced by TNBS, serum, mouse 5 of the group",0.019 ng/mL
same,"IL17, serum level","[9]; acute colitis induced by TNBS, serum, mouse 6 of the group",0.025 ng/mL
same,"IL17, serum level","[9]; acute colitis induced by TNBS, serum, mouse 7 of the group",0.021 ng/mL
same,"IL17, serum level","[9]; acute colitis induced by TNBS, serum, mouse 8 of the group",0.028 ng/mL
same,IL10 (ng/g colon),[10],3.75 ng/g colon
C[C@@H](O)[C@@H]1NC(=O)[C@H](CCCCN)NC(=O)[C@H](Cc2c[nH]c3ccccc23)NC(=O)[C@H](Cc2ccccc2)NC(=O)[C@H](Cc2ccccc2)NC(=O)[C@H](CC(N)=O)NC(=O)[C@H](CCCCN)NC(=O)[C@@H](NC(=O)[C@@H]2CCCN2)CSSC[C@@H](C(=O)N[C@@H](CCCCN)C(=O)O)NC(=O)[C@H](CO)NC(=O)[C@H](CO)NC(=O)[C@H](Cc2ccccc2)NC1=O [CST] (H-PCKNFFWKTFSSCK-OH; disulfide 2-13),IC50,[11],0.2 nM
same,IC50,[12],0.3 nM
same,IC50,[13],0.09 nM
same,IC50,[14],0.3 nM
